Results from patent publication US20190290729A1, “PHARMACEUTICAL ASSOCIATION OF GROWTH FACTOR RECEPTOR AGONIST AND ADHESION PROTEIN INHIBITOR FOR CONVERTING A NEOPLASTIC CELL INTO A NON-NEOPLASTIC CELL AND USES THEREOF” (HISTIDE AG, priority 2015, published 2019).
Where no end group is shown, it is not given here.

Key:
[1] = system: MG63 cells; experiment: p53 protein expression level, immunofluorescence staining quantified with ImageJ, osteosarcoma cells; assay type: cell-based, human; set-up: P53: unit not given here; details: for p53 (%): Table 4, cyclic GFR-binding peptide in association with SiRNA Integrin alpha 3 and SiRNA Integrin beta 1, 400 ng/mL, 24 hours; for P53: Table 9, in association with SiRNA Integrin alpha 3+SiRNA Integrin beta 1 (SEQ ID NO: 141 to 163)
Experimental: (§1) The following starting materials and reagents were used: • Type-I collagen sponge was obtained from Sigma®. • PBS 1× was obtained from Gibco®. • MilliQ water: is water characterised in terms of resistivity (typically 18.2 MΩ·cm at 25° C.). • Low glucose Dulbecco's Modified Eagle Medium (DMEM) was obtained from Invitrogen® • Minimum Essential Medium Eagle without ascorbic acid (αMEM) was obtained from Invitrogen®. • All of the cell culture experiments were carried out without any serum in the medium for the first 8 hours of culture. • Osteosarcoma cells: MG63 cells were obtained from ATCC®. These cells were cultured in DMEM (Eagle's Minimum Essential Medium) medium supplemented with 10% fetal calf serum (FCS) and 1% penicillin/streptomycin. All cells were used at a low passage number (passage 10), were subconfluently cultured and were seeded at 10^4 cells/cm^2 for the purpose of the experiments. • Chondrosarcoma cells Hs819.T cells were obtained from ATCC®. These cells were cultured in DMEM (Eagle's Minimum Essential Medium) medium supplemented with 10% fetal calf serum (FCS) and 1% penicillin/streptomycin. All cells were used at a low passage number (passage 10), were subconfluently cultured and were seeded at 10^4 cells/cm^2 for the purpose of the experiments. • Rhabdomyosarcoma cells: A-673 cells were obtained from ATCC®. These cells were cultured in DMEM (Eagle's Minimum Essential Medium) medium supplemented with 10% fetal calf serum (FCS) and 1% penicillin/streptomycin. All cells were used at a low passage number (passage 10), were subconfluently cultured and were seeded at 10^4 cells/cm^2 for the purpose of the experiments. • Adenocarcinoma cells: HCC4006 cells were obtained from ATCC®. These cells were cultured in RPMI-1640 medium (obtained from ATCC®) supplemented with 10% fetal calf serum (FCS) and 1% penicillin/streptomycin. All cells were used at a low passage number (passage 10), were subconfluently cultured and were seeded at 10^4 cells/cm^2 for the purpose of the experiments. • CMFDA is a Cell Tracker Green obtained from Invitrogen®. • DAPI was obtained from Sigma®. • Fetal bovine serum (FBS) was obtained from Gibco®. • Penicillin/streptomycin was obtained from Invitrogen®. • The AlamarBlue® assay was obtained from Molecular Probes®. • Anti phospho-p53 antibody was obtained from Santa Cruz Biotechnology®, • Anti pRB antibody was obtained from Santa Cruz Biotechnology®, • Monoclonal anti-integrin (extracellular domain) αv, α5, α3, α4, β1, β3, β5 and β9 antibodies were obtained from Santa Cruz Biotechnology®, • Cell cytoskeletal filamentous actin (F-actin) was visualized by Alexa Fluor® 488 phalloidin Sigma® labeling. • Monoclonal anti-vinculin antibody (clone hVIN-1, produced in mouse) was obtained from Sigma®.
(§2) • All of the peptides were synthetized using conventional solution and/or solid phase peptide synthesis methods. • All of the experiments were performed with a concentration of 400 ng/mL of GFR-binding compound(s) as defined herein. • All cell culture experiments were performed with cultures on plastic coated with type-I collagen in order to mimic the physiological conditions of the human body. • The compositions of pharmaceutical compositions used in the examples below are summarized in the following table:
(§3) The cells were first fixed for 20 min with 4% paraformaldehyde/PBS at 4° C. After fixation, the cells were permeabilized in PBS containing 1% Triton X-100 for 15 min. Protein immunofluorescent visualization was performed by first treating the cells with 1% (v/v) specific monoclonal antibodies for 1 hour at 37° C. Then the samples were incubated with Alexa Fluor® 568 or 647 (F(ab′)2 fragment of IgG(H+L)) during 30 min at room temperature. The cell nuclei were counterstained in 20 ng/mL DAPI for 10 min at room temperature.
(§4) For this type of quantification the freeware image analysis ImageJ® software was used. […]

[2] = system: MG63 cells; experiment: pRB phosphorylation level, immunofluorescence staining quantified with ImageJ, osteosarcoma cells; assay type: cell-based, human; details: for pRB: Table 9, in association with SiRNA Integrin alpha 3+SiRNA Integrin beta 1 (SEQ ID NO: 141 to 163)
Experimental: as §1, §2, §3, §4

[3] = system: human rhabdosarcoma cells; experiment: p53 quantification, same procedure, rhabdosarcoma cells; assay type: cell-based; set-up: P53: unit not given here; details: for P53: Table 9, in association with SiRNA Integrin alpha 3+RGDSPC+SiRNA Integrin beta 1+SiRNA Syndecan 1 (SEQ ID NO: 31, 32, 164 to 187)
Experimental: as §1, §2, §3, §4

[4] = system: human rhabdosarcoma cells; experiment: pRB quantification, same procedure, rhabdosarcoma cells; assay type: cell-based; details: for pRB: Table 9, in association with SiRNA Integrin alpha 3+RGDSPC+SiRNA Integrin beta 1+SiRNA Syndecan 1 (SEQ ID NO: 31, 32, 164 to 187)
Experimental: as §1, §2, §3, §4

[5] = Table 4, MG63 cells, cyclic GFR-binding peptide in association with SiRNA Integrin alpha 3 and SiRNA Integrin beta 1, 400 ng/mL, 24 hours
[6] = Table 7, human osteosarcoma cells, MG63, GFR-binding compound within pharmaceutical association
[7] = Table 8, in association with SiRNA Integrin alpha 3, v, 4 and SiRNA Integrin beta 1
[8] = Table 5, cyclic GFR-binding peptide in association with SiRNA Integrin alpha 3+RGDSPC+SiRNA Integrin beta 1+SiRNA Syndecan 1, 400 ng/mL

APTGGSATSMLYYDKGVVTYLRKHRGGVVKDKGVVTY (also: cyclic, ring not given here) [SEQ ID NO: 38204]
p53 (%) [1]: 37%
pRB (%) [2, 5]: 11%

APTLLNAISMLYFNDKQQIILKKYRLLVVRNDKQQII (also: cyclic, ring not given here) [SEQ ID NO: 38203]
p53 (%) [1]: 44%
pRB (%) [2, 5]: 12%

APVAAKPLSMLYVDKGVVTYDHHKDAAVEEDEYDKVV (also: cyclic, ring not given here) [SEQ ID NO: 38209]
p53 (%) [1]: 38%
pRB (%) [2, 5]: 11%

ASASPSSVPQDLEPLTILYYVGRTPKVEQLSNMV (Non-cyclic GFR-binding peptide) [SEQ ID NO: 55]
pRB (%) [2, 6]: 17%

CAPTKLSAISMLYLDSSNNVILKNYQ (Non-cyclic GFR-binding peptide) [SEQ ID NO: 154]
P53 [1]: 40
pRB ([2]; MG63 cells): 14

CAPTQLSPISVLYKDDSSNVILKYHYTLEDH (Non-cyclic GFR-binding peptide) [SEQ ID NO: 148]
P53 [1]: 42
pRB ([2]; MG63 cells): 9

CASAAPSSVPQKLNAISMLYFVGRKPKVLKKYRMIVRS (Non-cyclic GFR-binding peptide) [SEQ ID NO: 157]
P53 [1]: 34
pRB ([2]; MG63 cells): 11

CASASPSSVSQDLNAISVLYFIGKTPKILKKYRMIVKSSKSS (Non-cyclic GFR-binding peptide) [SEQ ID NO: 145]
P53 [1]: 38
pRB ([2]; MG63 cells): 6

CASASPSSVSQDLSAISTLYLIGKTPKILKNYQMIVKSSKSS (Non-cyclic GFR-binding peptide) [SEQ ID NO: 143]
P53 [1]: 37
pRB ([2]; MG63 cells): 14

CASSAVSQELSAISMLYLGGGLKNYQDM (Non-cyclic GFR-binding peptide) [SEQ ID NO: 155]
P53 [1]: 47
pRB ([2]; MG63 cells): 6

CAVPKASSAPTKLSATSVLYYDSSNNVVLRKHRNMVVK (Non-cyclic GFR-binding peptide) [SEQ ID NO: 146]
P53 [1]: 38
pRB ([2]; MG63 cells): 11

CGGGSSVPTELSAISTLYLDDYDKVILKKYRNM (Non-cyclic GFR-binding peptide) [SEQ ID NO: 161]
P53 [1]: 52
pRB ([2]; MG63 cells): 10

CKASSVPTELSPISTLYKDENEKVVLKYHYDMVVEGSGSR (Non-cyclic GFR-binding peptide) [SEQ ID NO: 156]
P53 [1]: 45
pRB ([2]; MG63 cells): 8

CKIPKASSVPTELNAISVLYFDENEKVILKKYRDMVVEGSG (Non-cyclic GFR-binding peptide) [SEQ ID NO: 144]
P53 [1]: 40
pRB ([2]; MG63 cells): 7

CKVGKASSVPTKLNAISTLYLDDSSNVILKNYQ (Non-cyclic GFR-binding peptide) [SEQ ID NO: 160]
P53 [1]: 38
pRB ([2]; MG63 cells): 8

CKVGKASSVPTKLNAISTLYLDENEKVVLKKYREGMS (Non-cyclic GFR-binding peptide) [SEQ ID NO: 158]
P53 [1]: 39
pRB ([2]; MG63 cells): 9

CKVGKASSVPTKLSAISTLYLDDMGVPTLKNYQNMVVRASGSH (Non-cyclic GFR-binding peptide) [SEQ ID NO: 142]
P53 [1]: 36
pRB ([2]; MG63 cells): 8

CKVPKASSVPTELSAISTLYLAAAALKNYQEM (Non-cyclic GFR-binding peptide) [SEQ ID NO: 152]
P53 [1]: 37
pRB ([2]; MG63 cells): 8

CKVPKPSSAPTQLSAISTLYLDEYDKVVLKNYQNMVVRA (Non-cyclic GFR-binding peptide) [SEQ ID NO: 141]
P53 [1]: 41
pRB ([2]; MG63 cells): 11

CPKPSSAPTQLNAISMLYFGGGGGGGLKKYRNMVVRA (Non-cyclic GFR-binding peptide) [SEQ ID NO: 151]
P53 [1]: 39
pRB ([2]; MG63 cells): 9

NDEGLECVPTEERPVQVRKIRIKPHQGQKKATVFLQHNK [SEQ ID NO: 54] (Non-cyclic GFR-binding peptide)
pRB (%) [2, 6]: 12%

NDEGLECVPTEERPVQVRKIRIKPHQGQKKATVFLQHNK [SEQ ID NO: 59] (Non-cyclic GFR-binding peptide)
pRB (%) [2, 6]: 22%

RNVQCRPTQLEPLPIVYYEIVRKKPEQLSNTLEDHLA [SEQ ID NO: 56] (Non-cyclic GFR-binding peptide)
pRB (%) [2, 6]: 21%

RNVQCRPTQLEPLPIVYYEIVRKKPEQLSNTLEDHLA [SEQ ID NO: 61] (Non-cyclic GFR-binding peptide)
pRB (%) [2, 6]: 18%

VPQQQEPLTTLYYDEYDKVVEQLSNQQVKS (Non-cyclic GFR-binding peptide) [SEQ ID NO: 134]
P53 (%) [3, 7]: 50%
pRB (%) [4, 7]: 8%

VPTAAEPISMLYLDEYDKVVKFKYEAAAVS (Non-cyclic GFR-binding peptide) [SEQ ID NO: 129]
P53 (%) [3, 7]: 42%
pRB (%) [4, 7]: 20%

VPTAAEPLTMLYYEIVRKKPIFEQLSNMVEHSDDMGVPT (also: cyclic peptide) [SEQ ID NO: 38223]
P53 (%) [3, 8]: 44%
pRB (%) [4, 8]: 17%

VPTAASAISILYLDAANNVVLKNYQAAVVE (Non-cyclic GFR-binding peptide) [SEQ ID NO: 123]
P53 (%) [3, 7]: 32%
pRB (%) [4, 7]: 11%

VPTDDSATSTLYYDKGVVTYLRKHRDDEHS (Non-cyclic GFR-binding peptide) [SEQ ID NO: 137]
P53 (%) [3, 7]: 42%
pRB (%) [4, 7]: 12%

VPTGGEPLTTLYYNDKQQIIEQLSNGGEHS (Non-cyclic GFR-binding peptide) [SEQ ID NO: 138]
P53 (%) [3, 7]: 45%
pRB (%) [4, 7]: 20%

VPTMMSNITTQIMRIKPHQGQHIGEMSMMQHN (Non-cyclic GFR-binding peptide) [SEQ ID NO: 135]
P53 (%) [3, 7]: 48%
pRB (%) [4, 7]: 16%

VPTSSSPISTLYIDKGVVTYLKYHYSSVAE (Non-cyclic GFR-binding peptide) [SEQ ID NO: 128]
P53 (%) [3, 7]: 36%
pRB (%) [4, 7]: 21%

VPTVVSAISTLYLRIKPHQGQHLKNYQVVVVE (Non-cyclic GFR-binding peptide) [SEQ ID NO: 125]
P53 (%) [3, 7]: 42%
pRB (%) [4, 7]: 9%

VPTVVSPISMLYIDDMGVPTYKQYEVVVVE (Non-cyclic GFR-binding peptide) [SEQ ID NO: 131]
P53 (%) [3, 7]: 36%
pRB (%) [4, 7]: 12%

VSQAARPVQTRKIDDMGVPTKKATVAAVKSDDMGVPT (also: cyclic peptide) [SEQ ID NO: 38220]
P53 (%) [3, 8]: 42%
pRB (%) [4, 8]: 9%

VSQDLSAISTLYLKIVRKEPLKNYQEMVEE (Non-cyclic GFR-binding peptide) [SEQ ID NO: 58]
pRB (%) [2, 6]: 19%

WWFWGASSAVSQELSAISMLYLGGGLKNYQDMQHN (Non-cyclic GFR-binding peptide) [SEQ ID NO: 171]
P53 [3]: 47
pRB [4]: 8

WWFWGKASSVPTELSPISTLYKDENEKVVLKYHYDMVVEGSGSR (Non-cyclic GFR-binding peptide) [SEQ ID NO: 170]
P53 [3]: 44
pRB [4]: 7
